Target: hERG1a (human ether-a-go-go-related gene potassium channel, Kv11.1) (Homo sapiens, UniProt Q12809)
Type: cell-based

Sequence of hERG1a (human ether-a-go-go-related gene potassium channel, Kv11.1) (Q12809 whole entry): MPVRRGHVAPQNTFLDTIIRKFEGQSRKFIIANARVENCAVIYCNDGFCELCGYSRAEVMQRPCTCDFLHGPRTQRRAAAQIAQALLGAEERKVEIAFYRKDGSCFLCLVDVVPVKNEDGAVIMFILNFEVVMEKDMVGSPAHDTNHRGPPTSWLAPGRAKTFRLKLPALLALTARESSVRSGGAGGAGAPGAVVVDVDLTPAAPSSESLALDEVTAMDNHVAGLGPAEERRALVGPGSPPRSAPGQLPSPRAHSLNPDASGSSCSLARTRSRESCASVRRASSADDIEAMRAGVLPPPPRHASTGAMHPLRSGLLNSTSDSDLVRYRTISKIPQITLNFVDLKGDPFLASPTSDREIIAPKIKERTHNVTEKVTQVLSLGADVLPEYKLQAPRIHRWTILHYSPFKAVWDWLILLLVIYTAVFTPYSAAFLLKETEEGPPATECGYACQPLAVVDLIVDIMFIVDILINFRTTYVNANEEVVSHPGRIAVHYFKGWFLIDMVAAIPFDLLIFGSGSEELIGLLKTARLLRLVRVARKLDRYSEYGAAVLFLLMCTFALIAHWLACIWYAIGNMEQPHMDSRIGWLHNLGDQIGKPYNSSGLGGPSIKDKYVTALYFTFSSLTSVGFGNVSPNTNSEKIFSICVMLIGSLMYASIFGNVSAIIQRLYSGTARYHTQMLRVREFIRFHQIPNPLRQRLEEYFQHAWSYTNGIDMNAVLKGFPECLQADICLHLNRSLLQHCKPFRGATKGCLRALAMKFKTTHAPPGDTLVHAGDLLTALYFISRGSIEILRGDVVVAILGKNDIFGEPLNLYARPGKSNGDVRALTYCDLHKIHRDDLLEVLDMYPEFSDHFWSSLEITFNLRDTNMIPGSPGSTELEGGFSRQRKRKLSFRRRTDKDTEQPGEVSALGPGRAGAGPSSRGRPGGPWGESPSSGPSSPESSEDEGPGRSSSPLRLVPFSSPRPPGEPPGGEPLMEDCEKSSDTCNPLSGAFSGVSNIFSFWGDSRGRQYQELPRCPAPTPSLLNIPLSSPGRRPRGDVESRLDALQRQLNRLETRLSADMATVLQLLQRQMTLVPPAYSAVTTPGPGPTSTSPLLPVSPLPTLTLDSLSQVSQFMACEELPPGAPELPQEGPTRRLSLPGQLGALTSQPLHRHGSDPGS

Work on N#Cc1ccc(C(c2ccc(C#N)cc2)n2cncn2)cc1 [letrozole] yielded an IC50 of 373 nM.

Reference: paper PMC7889647 (Basic & clinical pharmacology & toxicology, 2020)
